According to patent publication US20130109572A1, “HERBICIDAL COMPOSITIONS AND METHODS OF USE” (The Board of Trustees of the University of Alabama, priority 2010, published 2013):

Legend:
[1] = tested on: white mustard (Sinapis alba L.); assay: Growth chamber spray test, fresh mass of white mustard (Mecoprop ionic liquids); format: in vivo; conditions: 0.001 M spray in water/ethanol (1:2), 200 L/ha, 2 weeks after application; for Reduction of fresh mass (%): vs unsprayed control
Procedure: The research was conducted under controlled environmental conditions in a dedicated growth chamber. The test plant was white mustard (Sinapis alba L.). Seeds were sown into soil-filled containers equal to the depth of 1 cm. After producing first leave, only 5 plants were allowed to stay in each pot. After producing the 3rd leaf, the plants were sprayed with the ionic liquids studied using a Tee Jet 1102 sprayer, the sprayer moving above the plants at a constant speed of 3.1 m/s. The spray distance from the tips of the plant was 40 cm, the pressure of liquid in sprayer was 0.2 MPa, and a liquid in the expenditure per 1 ha was 200 L.
Examples of the ionic liquids described herein were dissolved in a solution of water and ethanol (1:2) in an amount corresponding to a concentration of 0.001 mol/L, or 0.533 g/L [DDA][MCPP-P], 0.520 g/L [BA][MCPP-P], and 0.546 g/L [DOM] [MCPP-P]. As a comparison, a commercial product containing 600 g of the herbicide Mecoprop-P in 1 L was used. After spraying the plants, the pots were placed back in a growth chamber at a temperature of 20° C. (±2° C.) and humidity of 50%. The illumination time was 16 hours per day.
After a period of 2 weeks, the plants were cut to the soil level and weighed (0.1 g accuracy). A study was carried out in 4 replications in a completely randomized setup. The reduction of plant fresh weight as compared to control (no sprayed plants) was measured.

rat = conditions: cited from earlier work
[2] = tested on: common poppy (Papaver rhoeas); assay: Growth chamber spray test, fresh weight reduction (Glyphosate ionic liquids); format: in vivo; conditions: 0.01 mol/L in water; 2 WAT
Procedure: Experiment in growth chamber: Temperature—20° C., humidity—60%, photoperiod (day/night hours)—16/8. The research was conducted under controlled environmental conditions in a dedicated growth chamber. The test plant was common poppy (Papaver rhoeas). The seeds were sown into soil-filled containers equal to the depth of 0.1 cm. After producing leaves, only 1 plant was allowed to stay in each pot. After producing the rosette, the plants were sprayed with the ionic liquids using a sprayer with Tee Jet 1102 nozzles. The sprayer was moving above the plants at a constant speed of 3.1 m/s. The spray distance from the tips of the plant was 40 cm, the pressure of liquid in sprayer was 0.2 MPa, and the liquid in the expenditure per 1 ha was 200 L.
The ionic liquids were dissolved in water in an amount corresponding to a concentration of 0.01 mol/L or 4.94 g/L [DDA][Glyphosate], 4.88 g/L [BA][Glyphosate]. As a comparison, a commercial product ROUNDUP™ containing 360 g of Glyphosate in 1 L was used. After spraying the plants, the pots were placed back in a growth chamber at a temperature of 20° C. (±2° C.) and humidity of 60%. The illumination time was 16 hours per day.
After a period of 2 weeks, the plants were cut right to the soil level and weighed (0.1 g accuracy). Fresh weight was used as the effect parameter. […]

[3] = tested on: white mustard (Sinapis alba); assay: Growth chamber spray test, fresh weight reduction (Dicamba ionic liquid); format: in vivo; conditions: for Fresh weight reduction (%) Sinapis alba: 2 WAT
[4] = tested on: cornflower (Centaurea cyanus); assay: Field test, visual effectiveness of weed eradication; format: in vivo; conditions: field plots, 4 WAT, mean estimate, solutions of 0.01 and 0.02 mol/dm^3, 100% = complete destruction
Procedure: (§1) Field test. The research was conducted in the Field Experimental Station of the Institute of Plant Protection in Winna Gora on the plots of dimensions 1.5 m×5 m. The test plants were common lambsquarters (Chenopodium album) and cornflower (Centaurea cyanus). The investigated ion pairs were alkyltrimethylammonium 3,6-dichloro-2-methoxybenzoate ([ATMA][Dicamba]) and didecyldimethylammonium 3,6-dichloro-2-methoxybenzoate ([DDA][Dicamba]).
(§2) Solutions of investigated ion pairs were prepared as follows: alkyltrimethylammonium 3,6-dichloro-2-methoxybenzoate [ATMA][Dicamba] and didecyldimethylammonium 3,6-dichloro-2-methoxybenzoate [DDA][Dicamba] were dissolved in a mixture of water and ethanol (1:1) in an amount corresponding to a concentration of 0.01 and 0.02 mol/dm^3. […] As controls, objects with no treatment were used and sprayed only with a solution of water and ethanol (1:1).
(§3) The procedures were performed using a sprayer equipped with a flat stream nozzles type Tee Jet 110 03 XR, with a steady pressure of 0.2 MPa and the expense of the liquid in use in 200 L per 1 hectare. During the procedure, the following weeds were at following developmental phases: common lambsquarters—from 4 to 10 leaves; and cornflower—a fully-formed rosette.
(§4) The effectiveness of weed eradication was evaluated visually by comparing the state of weeds on each plot treated with [DDA][Dicamba] and control solution.

[5] = tested on: common lambsquarters (Chenopodium album); assay: as above; format: in vivo; conditions: field plots, 4 WAT, mean estimate, solutions of 0.01 and 0.02 mol/dm^3, 100% = complete destruction
Procedure: as §1, §2, §3, §4

[6] = tested on: common lambsquarters (Chenopodium album); assay: Growth chamber spray test, fresh weight reduction (Dicamba ionic liquid); format: in vivo; conditions: 2 WAT
[7] = 0.001 mole/L in water/DMSO (2:1)
[8] = 0.002 mole/L in water/DMSO (2:1)
[9] = 0.004 mole/L in water/DMSO (2:1)

Benzalkonium (±)-2-(4-chloro-2-methylphenoxy)propionate [[BA][MCPP]]
Fresh mass of white mustard [1]: 5.13 g | Reduction of fresh mass (%) [1]: 57.8%

Domiphen (+)-(R)-2-(4-chloro-2-methylphenoxy)propionate [[DOM][MCPP-P]]
Fresh mass of white mustard [1]: 4.08 g | Reduction of fresh mass (%) [1]: 66.5%

O=C(O)COc1ccc(Cl)cc1Cl [Example 2.4-D, 2,4-dichlorophenoxyacetic acid]
rat LD50 (rat): 639 to 764 mg/kg

Didecyldimethylammonium (+)-(R)-2-(4-chloro-2-methylphenoxy)propionate [[DDA][MCPP-P]]
Fresh mass of white mustard [1]: 4.78 g | Reduction of fresh mass (%) [1]: 60.7%

Didecyldimethylammonium Glyphosate [[DDA][Glyphosate]]
Fresh weight reduction of Papaver rhoeas (%) [2]: 78.3%

Didecyldimethylammonium 3,6-dichloro-2-methoxybenzoate [[DDA][Dicamba]]
Fresh weight reduction (%) Sinapis alba [3, 7]: 6.8% | Fresh weight reduction (%) Sinapis alba [3, 8]: 18.5% | Fresh weight reduction (%) Sinapis alba [3, 9]: 27.1% | Effect on the weight of Sinapis alba compared with neutral Dicamba ([3]; growth chamber, preliminary comparison): substantially more active than neutral Dicamba | Effectiveness of Weed Eradication (%) Centaurea cyanus [4]: 95% | Effectiveness of Weed Eradication (%) Chenopodium album [5]: 92% | Fresh weight reduction (%) Chenopodium album [6, 7]: 16.7% | Fresh weight reduction (%) Chenopodium album [6, 8]: 41.7% | Fresh weight reduction (%) Chenopodium album [6, 9]: 45.7%

Cc1cc(Cl)ccc1OCC(=O)O [MCPA, 4-chloro-2-methylphenoxyacetic acid]
rat LD50 (rat): 962 to 1470 mg/kg

Benzalkonium Glyphosate [[BA][Glyphosate]]
Fresh weight reduction of Papaver rhoeas (%) [2]: 84.0%
